Reference: paper PMC10304221, “Pharmacokinetic and Biomarker Quantification Studies on Vancomycin-Loaded PEGylated Liposomes and Its Potential to Reduce Vancomycin-Induced Kidney Injury: A Rat Study” (Pharmaceutics, 2023)
Where a name gives a salt, the structure may show the parent alone.

Columns and labels:
[1] = stated in the chemicals section, no method or reference given, cited from earlier work
Protocol: The 0.9% NaCl (Sing-Tong, Taiwan), Acetonitrile (CAN; Fisher Scientific U.K. Ltd., Loughborough, England), Bupivacaine (Marcaine®; AstraZeneca, Cambridge, UK), formic acid (FA; Merck, Germany), DMSO (Merck, Darmstadt, Germany), Ketalar injection (50 mg/mL; Pfizer, New York, NY, USA), methanol (MeOH; AENCORE, Australia), PBS (Sigma, USA), pentobarbital (Health-Tech Pharmaceutical Co., Ltd., Taiwan), Rompun injection (2%; Bayer, Leverkusen, Germany), and sodium heparin bodene (Pty) (Limited Trading as Intramed, Maharashtra, India). Acetonitrile, chloroform, and methanol VWR International (Radno ...

[2] = Plasma pharmacokinetics of vancomycin in rats, LC-MS/MS with non-compartmental analysis; settings: rat plasma
[3] = day three, 150 mg/kg IV 3 min infusion qd x3, NCA, LC-MS/MS, mean, n = 6

## CN[C@H](CC(C)C)C(=O)N[C@H]1C(=O)N[C@@H](CC(N)=O)C(=O)N[C@H]2C(=O)N[C@H]3C(=O)N[C@H](C(=O)N[C@H](C(=O)O)c4cc(O)cc(O)c4-c4cc3ccc4O)[C@H](O)c3ccc(c(Cl)c3)Oc3cc2cc(c3O[C@@H]2O[C@H](CO)[C@@H](O)[C@H](O)[C@H]2O[C@H]2C[C@](C)(N)[C@H](O)[C@H](C)O2)Oc2ccc(cc2Cl)[C@H]1O [Vancomycin Hydrochloride, Vancomycin hydrochloride]
[1]; acetone, ether, chloroform
  Solubility in acetone, ether, and chloroform: insoluble
[1]; methanol
  Solubility in methanol: moderately soluble
[1]; water
  Solubility in water: more than 100 mg/mL
[2]; day one at 0.5 and 1 h, day three at 1, 2 and 4 h, 150 mg/kg IV qd x3, n = 3, p ≤ 0.05, Tukey's two-way ANOVA
  Reduction in plasma vancomycin concentration compared to the PEG-VANCO-lipo group: 2–5 fold
[2]; day three, 150 mg/kg IV 3 min infusion qd x3, NCA (WinNonlin), LC-MS/MS, mean, n = 6
  t1/2: 13.26 h
[2]; [3]
  AUCINF: 1461.44 µg·h/mL
  C0 (initial concentration estimated by back-extrapolation): 186.69 µg/mL
  CL: 1.7533 mL/min/kg
  MRT: 17.073 h
